Source: US9820989B2, “Method of treating conditions with kinase inhibitors” (Allergan, Inc., priority 2012, dated 2017)

Target: PDGFRβ kinase (Homo sapiens (Human), UniProt P09619)
Test: PDGFRβ Kinase Assay (biochemical, poly-Glu-Tyr ELISA)
Conditions: purified cytoplasmic domain PDGFR-b protein, 36 μM ATP
Procedure: Biochemical PDGFRβ kinase assays were performed in 96 well microliter plates that were coated overnight with 75 μg of poly-Glu-Tyr (4:1) in 10 mM Phosphate Buffered Saline (PBS), pH 7.4. The coated plates were washed with 2 mls per well PBS+0.05% Tween-20 (PBS-T), blocked by incubation with PBS containing 1% BSA, then washed with 2 mls per well PBS-T prior to starting the reaction. Reactions were carried out in 100 μL reaction volumes containing 36 μM ATP in kinase buffer (50 mM Hepes buffer pH 7.4, 20 mM MgCl2, 0.1 mM MnCl2 and 0.2 mM Na3VO4). Test compounds were reconstituted in 100% DMSO and added to the reaction to give a final DMSO concentration of 5%. Reactions were initiated by the addition 20 ul per well of kinase buffer containing 200-300 ng purified cytoplasmic domain PDGFR-b protein (Millipore). […] The reaction was terminated by the addition of 100 μl of 2.5N H2SO4 to each well and read using a microplate ELISA reader set at 492 nm. IC50 values for compound inhibition were calculated directly from graphs of optical density (arbitrary units) versus compound concentration following subtraction of blank values.
IC50 values for test compounds were calculated from % inhibition of PDGF-BB stimulated responses in the absence of inhibitor.

Sequence of PDGFRβ kinase (P09619 554-1106): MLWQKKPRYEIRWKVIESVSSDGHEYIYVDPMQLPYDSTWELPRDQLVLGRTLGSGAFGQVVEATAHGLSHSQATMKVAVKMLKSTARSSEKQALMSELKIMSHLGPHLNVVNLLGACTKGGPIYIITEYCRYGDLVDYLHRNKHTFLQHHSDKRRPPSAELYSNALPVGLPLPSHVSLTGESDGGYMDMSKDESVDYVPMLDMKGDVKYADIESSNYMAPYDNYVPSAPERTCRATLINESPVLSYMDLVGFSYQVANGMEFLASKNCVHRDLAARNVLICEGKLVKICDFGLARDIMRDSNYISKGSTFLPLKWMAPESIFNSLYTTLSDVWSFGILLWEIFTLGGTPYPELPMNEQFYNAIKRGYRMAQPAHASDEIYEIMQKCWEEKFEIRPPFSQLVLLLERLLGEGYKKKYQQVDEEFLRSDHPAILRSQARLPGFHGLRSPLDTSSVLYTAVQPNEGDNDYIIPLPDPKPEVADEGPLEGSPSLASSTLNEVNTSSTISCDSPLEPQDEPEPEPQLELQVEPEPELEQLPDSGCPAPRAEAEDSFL

IC50: > 10 µM
Structure (SMILES): CC(C)c1ccc(NC(=O)c2cc(N3Cc4cnc(N)nc4C3)ccn2)cc1 [Example 83, 4-(2-amino-5,7-dihydro-6H-pyrrolo[3,4-d]pyrimidin-6-yl)-N-(4-isopropylphenyl)pyridine-2-carboxamide]
